Consider 47 compounds from ChEMBL document CHEMBL5033993, “Design, Synthesis, and Evaluation of o-(Biphenyl-3-ylmethoxy)nitrophenyl Derivatives as PD-1/PD-L1 Inhibitors with Potent Anticancer Efficacy In Vivo” (J Med Chem, 2021).

Each structure is given as a SMILES string.

Programmed cell death protein 1/Programmed cell death 1 ligand 1, sequence (Q15116 whole entry): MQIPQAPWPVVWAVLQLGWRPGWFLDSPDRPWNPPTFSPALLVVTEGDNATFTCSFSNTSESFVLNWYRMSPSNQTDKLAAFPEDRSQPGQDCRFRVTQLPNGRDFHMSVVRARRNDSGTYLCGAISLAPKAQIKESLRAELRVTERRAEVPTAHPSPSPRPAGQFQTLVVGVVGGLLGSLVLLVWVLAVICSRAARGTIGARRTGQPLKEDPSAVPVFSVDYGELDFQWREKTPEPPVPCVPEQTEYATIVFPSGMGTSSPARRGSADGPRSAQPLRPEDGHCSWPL
Programmed cell death protein 1/Programmed cell death 1 ligand 1, sequence (Q9NZQ7 whole entry): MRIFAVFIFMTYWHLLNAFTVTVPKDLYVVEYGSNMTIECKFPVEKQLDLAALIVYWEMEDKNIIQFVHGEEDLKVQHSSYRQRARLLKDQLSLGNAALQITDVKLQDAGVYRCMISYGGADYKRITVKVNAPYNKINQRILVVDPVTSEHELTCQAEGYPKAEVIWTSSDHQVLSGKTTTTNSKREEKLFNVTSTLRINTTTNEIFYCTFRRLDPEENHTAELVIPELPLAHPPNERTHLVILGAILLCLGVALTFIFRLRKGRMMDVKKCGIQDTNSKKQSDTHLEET

The assay addresses Programmed cell death protein 1/Programmed cell death 1 ligand 1 (Homo sapiens, UniProt Q15116+Q9NZQ7). Kind of assay: Inhibition of human PD-1/PD-L1 interaction assessed as disruption of PD-1/PD-L1 complex incubated for 2 hrs by Tag-1 Eu3+ and anti-Tag2-XL665 based HTRF assay. The class given is protein-complex assay. For orientation: TR-FRET usually uses a lanthanide donor and a delayed reading to cut background.
The term IC50 denotes the concentration needed to halve the response being measured. As to `Cc1c(COc2ccc(CN[C@H](C(=O)O)[C@@H](C)O)cc2[N+](=O)[O-])cccc1-c1ccccc1`, the IC50 is 61 nM.

As for `C[C@@H](O)[C@H](NCc1ccc(OCc2cccc(-c3ccccc3)c2Br)c([N+](=O)[O-])c1)C(=O)O`, the 50% inhibitory concentration (IC50) turned out to be 353 nM.

As for `Cc1c(COc2ccc(CN3CCCC[C@H]3C(=O)O)cc2[N+](=O)[O-])cccc1-c1ccccc1`, the IC50 came out at 8.78 nM.

Turning to `CCC(CO)(CO)NC(=O)[C@@H]1CCCN1Cc1ccc(OCc2cccc(-c3ccccc3)c2C)c([N+](=O)[O-])c1`, the half-inhibitory concentration (IC50) is 82.3 nM.

Take `Cc1c(COc2cc(OCc3cccc(C#N)c3)c(CN3CCCC[C@H]3C(=O)N3CCC[C@H]3C(=O)O)cc2[N+](=O)[O-])cccc1-c1ccccc1`: the IC50 was 4.31 nM.

In the case of `CC(=O)NCCNCc1cc([N+](=O)[O-])c(OCc2cccc(-c3ccccc3)c2C)cc1OCc1cccc(C#N)c1`, the IC50 is 8.11 nM.

With `Cc1c(COc2ccc(CNC(CO)CO)cc2[N+](=O)[O-])cccc1-c1ccccc1`, the IC50 came to 8.91 nM.

For `Cc1c(COc2ccc(CN3CCCC[C@H]3C(=O)NCC(C)(C)O)cc2[N+](=O)[O-])cccc1-c1ccccc1`, the half-maximal inhibitory concentration (IC50) was determined as 12.1 nM.

In the case of `Cc1c(COc2ccc(CN3CCCC[C@H]3C(=O)N[C@H](C(=O)O)[C@@H](C)O)cc2[N+](=O)[O-])cccc1-c1ccccc1`, the IC50 came out at 26.7 nM.

On to `CC(=O)NCCNC(=O)[C@@H]1CCCN1Cc1ccc(OCc2cccc(-c3ccccc3)c2C)c([N+](=O)[O-])c1`, for which the IC50 was found to be 56.4 nM.

For `Cc1c(COc2ccc(CNCCO)cc2[N+](=O)[O-])cccc1-c1ccccc1`, the IC50 was 11.8 nM.

On to `Cc1c(COc2ccc(CN3CCC[C@H]3C(=O)N[C@@H](CO)C(=O)O)cc2[N+](=O)[O-])cccc1-c1ccccc1`, for which the IC50 came out at 73.2 nM.

For the compound `Cc1c(COc2cc(OCc3cccc(C#N)c3)c(CN3CCCC[C@H]3C(=O)NCC(C)(C)O)cc2[N+](=O)[O-])cccc1-c1ccccc1`, the half-maximal inhibitory concentration (IC50) came out at 4.77 nM.

For `Cc1c(COc2cc(OCc3cccc(C#N)c3)c(CNC(CO)CO)cc2[N+](=O)[O-])cccc1-c1ccccc1`, the IC50 is 7.8 nM.

Consider `Cc1c(COc2cc(OCc3cccc(C#N)c3)c(CN[C@@H](CO)C(=O)O)cc2[N+](=O)[O-])cccc1-c1ccccc1`, for which the IC50 came to 13 nM.

Turning to `Cc1c(COc2cc(OCc3cccnc3)c(CN[C@@H](CO)C(=O)O)cc2[N+](=O)[O-])cccc1-c1ccccc1`, the IC50 amounted to 17.9 nM.

For `Cc1c(COc2ccc(CN3CCCC[C@H]3C(=O)N[C@@H](C)C(=O)O)cc2[N+](=O)[O-])cccc1-c1ccccc1`, the IC50 was found to be 12.7 nM.

For `Cc1c(COc2cc(OCc3cccc(C#N)c3)c(CN(C)CC(=O)O)cc2[N+](=O)[O-])cccc1-c1ccccc1`, the IC50 was 7.44 nM.

Take `Cc1c(COc2cc(OCc3ccnc(C#N)c3)c(CN[C@H](C(=O)O)[C@@H](C)O)cc2[N+](=O)[O-])cccc1-c1ccccc1`: the IC50 was 10.2 nM.

As to `Cc1c(COc2cc(OCc3ccnc(C#N)c3)c(CN[C@@H](CO)C(=O)O)cc2[N+](=O)[O-])cccc1-c1ccccc1`, the IC50 turned out to be 9.33 nM.

For `Cc1c(COc2cc(OCc3ccnc(C#N)c3)c(CN3CCCC[C@H]3C(=O)O)cc2[N+](=O)[O-])cccc1-c1ccccc1`, the IC50 stood at 10.2 nM.

`Cc1c(COc2ccc(CN3CCC[C@H]3C(=O)N[C@H](C(=O)O)[C@@H](C)O)cc2[N+](=O)[O-])cccc1-c1ccccc1`: the IC50 amounted to 55.6 nM.

Turning to `Cc1c(COc2ccc(CN3CCC[C@H]3C(=O)NC(C)(CO)CO)cc2[N+](=O)[O-])cccc1-c1ccccc1`, the IC50 stood at 49.4 nM.

Consider `CC(=O)NCCNCc1ccc(OCc2cccc(-c3ccccc3)c2C)c([N+](=O)[O-])c1`, for which the IC50 worked out at 13.1 nM.

In the case of `Cc1c(COc2cc(OCc3cccnc3)c(CN3CCCC[C@H]3C(=O)O)cc2[N+](=O)[O-])cccc1-c1ccccc1`, the IC50 was determined as 8.75 nM.

For the compound `Cc1c(COc2ccc(CNCCC(=O)O)cc2[N+](=O)[O-])cccc1-c1ccccc1`, the IC50 is 39.5 nM.

Regarding `Cc1c(COc2ccc(CN3CCC[C@H]3C(=O)N[C@@H](C)CO)cc2[N+](=O)[O-])cccc1-c1ccccc1`, the IC50 was 61.8 nM.

Consider `Cc1c(COc2ccc(CN(CCO)CCO)cc2[N+](=O)[O-])cccc1-c1ccccc1`, for which the IC50 stood at 21.4 nM.

For the compound `Cc1c(COc2ccc(CN3CCC[C@H]3C(=O)NCCO)cc2[N+](=O)[O-])cccc1-c1ccccc1`, the IC50 worked out at 55.7 nM.

For `Cc1c(COc2ccc(CNCCCNC(CO)CO)cc2[N+](=O)[O-])cccc1-c1ccccc1`, the IC50 is 28.7 nM.

For `Cc1c(COc2ccc(CN3CCC[C@H]3C(=O)N(C)CC(O)CO)cc2[N+](=O)[O-])cccc1-c1ccccc1` (some centres not stated), the IC50 was 9.98 nM.

In the case of `Cc1c(COc2ccc(CN3CCCC[C@H]3C(=O)N3CCC[C@H]3C(=O)O)cc2[N+](=O)[O-])cccc1-c1ccccc1`, the IC50 is 14.8 nM.

`Cc1c(COc2ccc(CN3CCCC[C@H]3C(=O)N[C@@H](CO)C(=O)O)cc2[N+](=O)[O-])cccc1-c1ccccc1`: the IC50 came to 12.4 nM.

On to `Cc1c(COc2cc(OCc3cccc(C#N)c3)c(CNCCO)cc2[N+](=O)[O-])cccc1-c1ccccc1`, for which the IC50 worked out at 3.59 nM.

On to `Cc1c(COc2ccc(CNCc3ccoc3)cc2[N+](=O)[O-])cccc1-c1ccccc1`, for which the 50% inhibitory concentration (IC50) came out at 87.4 nM.

Consider `Cc1c(COc2ccc(CNCCN(C)C)cc2[N+](=O)[O-])cccc1-c1ccccc1`, for which the 50% inhibitory concentration (IC50) was 37.7 nM.

As for `Cc1c(COc2cc(OCc3cccc(C#N)c3)c(CN3CCCC[C@H]3C(=O)N[C@@H](CO)C(=O)O)cc2[N+](=O)[O-])cccc1-c1ccccc1`, the IC50 came out at 8.01 nM.

Take `Cc1c(COc2ccc(CN3CCC[C@H]3C(=O)O)cc2[N+](=O)[O-])cccc1-c1ccccc1`: the IC50 came out at 45.2 nM.

Take `Cc1c(COc2cc(OCc3cccc(C#N)c3)c(CN3CCC[C@H]3C(=O)O)cc2[N+](=O)[O-])cccc1-c1ccccc1`: the IC50 turned out to be 22.7 nM.

`Cc1c(COc2ccc(CN3CCC[C@H]3C(=O)NCC(C)(C)O)cc2[N+](=O)[O-])cccc1-c1ccccc1`: the IC50 turned out to be 71.2 nM.

With `Cc1c(COc2ccc(CN(C)CC(=O)O)cc2[N+](=O)[O-])cccc1-c1ccccc1`, the IC50 worked out at 20.9 nM.

For the compound `Cc1c(COc2ccc(CNCC(C)(C)O)cc2[N+](=O)[O-])cccc1-c1ccccc1`, the IC50 was 46.7 nM.

Consider `Cc1c(COc2cc(OCc3cccnc3)c(CN[C@H](C(=O)O)[C@@H](C)O)cc2[N+](=O)[O-])cccc1-c1ccccc1`, for which the half-inhibitory concentration (IC50) came to 15.5 nM.

For `Cc1c(COc2ccc(CNC(C)(CO)CO)cc2[N+](=O)[O-])cccc1-c1ccccc1`, the half-inhibitory concentration (IC50) amounted to 92.1 nM.

In the case of `CSCC[C@H](NCc1ccc(OCc2cccc(-c3ccccc3)c2C)c([N+](=O)[O-])c1)C(=O)O`, the IC50 was 17.8 nM.

As to `Cc1c(COc2cc(OCc3cccc(C#N)c3)c(CN3CCCC[C@H]3C(=O)O)cc2[N+](=O)[O-])cccc1-c1ccccc1`, the IC50 turned out to be 5.65 nM.

`Cc1c(COc2ccc(CN[C@@H](CO)C(=O)O)cc2[N+](=O)[O-])cccc1-c1ccccc1`: the half-maximal inhibitory concentration (IC50) turned out to be 27.7 nM.
